According to PubChem BioAssay (NCI):
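Protocol summary: plate cells (96-well), add compound at 5 concentrations, incubate 48 h, interpolate endpoints linearly. The concentration for 50% growth inhibition is given as GI50. The concentration for full growth arrest is given as TGI.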

Experiments:
Assay in all cases: NCI-60 cell line screen, 48 h
[1] = tested on: NCI-H460 lung
[2] = tested on: IGROV1 ovarian
[3] = tested on: MOLT-4 leukemia
[4] = tested on: HOP-92 NSCLC
[5] = tested on: SR leukemia
[6] = tested on: EKVX NSCLC
[7] = tested on: ACHN renal
[8] = tested on: SNB-75 CNS
[9] = tested on: MDA-MB-435
[10] = tested on: KM12 colon

Compound | GI50 [1] [µM] | TGI [1] [µM] | GI50 [2] [µM] | TGI [2] [µM] | GI50 [3] [µM] | TGI [3] [µM] | GI50 [4] [µM] | TGI [4] [µM] | GI50 [5] [µM] | TGI [5] [µM] | GI50 [6] [µM] | TGI [6] [µM] | GI50 [7] [µM] | TGI [7] [µM] | GI50 [8] [µM] | TGI [8] [µM] | GI50 [9] [µM] | TGI [9] [µM] | GI50 [10] [µM] | TGI [10] [µM]
Oc1ccccc1/C=N\NC(=S)N/N=C/c1ccccc1O | 0.62 | 12.1 | 1.53 | 16.2 | 1.43 | 22.4 | 10.3 | 64.5 | 1.67 | > 100 | 2.57 | 24.3 | 1.77 | > 100 | 2.24 | 38.2 | 1.97 | 25.3 | 3.11 | 21.1
COc1ccc2c(c1)C(c1cc(OC)c3c(c1)OCO3)C1=C(COC1=O)N2 (configuration not stated) | 0.348 | > 20.4 | 0.687 | > 84.5 | 0.51 | > 100 | 23.3 | > 100 | 0.183 | > 100 | 3.44 | > 100 | 1.57 | > 100 | 0.381 | 37.6 | 0.049 | 0.287 | 0.227 | 3.25
CN(C)Cc1c(C(=O)NCCOc2ccc(C(=O)NO)cc2)oc2ccccc12 | 0.221 | > 100 | 0.438 | 3.6 | 0.114 | 1.53 | 0.0603 | 0.424 | 0.203 | 12.4 | 0.346 | > 100 | 0.264 | 1.15 | 0.153 | > 40.7 | 0.174 | 0.679 | 0.312 | 2.34
O=[N+]([O-])c1oc2ccc3ccccc3c2c1CCO |  | 0.819 |  | 3.56 |  | > 100 |  | 35 |  | 3.23 |  | 2.09 |  | 3.68 |  | 16.7 |  | 3.16 |  | 31.5
O=C(O)Cc1ccc(N=Nc2c(O)c(C(=O)O)cc3ccccc23)cc1 |  | > 100 |  | > 100 |  | > 100 |  | > 100 |  | > 100 |  | > 100 |  | > 100 |  | > 100 |  | > 100 |  | > 100
COc1ccc(-c2cn(-c3cc(OC)c(OC)c(OC)c3)c(=O)[nH]2)cc1OC | > 100 | > 100 | > 100 | > 100 | > 100 | > 100 | > 100 | > 100 | > 100 | > 100 | > 100 | > 100 | > 100 | > 100 | 71.7 | > 100 | > 100 | > 100 | > 100 | > 100
CCNCCNc1cc(-c2ccc(C(F)(F)F)cc2)c(C#N)c2nc3cc(Cl)c(Cl)cc3n12 | 1.66 | 3.27 |  |  |  |  | 1.41 | 2.96 | 0.185 | 0.439 | 1.59 | 3.13 | 1.61 | 3.1 | 1.38 | 2.69 | 1.65 | 3.16 | 1.69 | 3.2
COc1cc(/C=C/C(=O)c2c(-c3ccc(F)cc3)nc3sc(C)nn23)cc(OC)c1OC | 1.94 | 4.08 | 2.69 | 6.71 | 2.3 | 6.72 | 1.6 | 8.64 | 1.77 | 5.27 |  |  | 1.93 | 4.6 | 2.67 | 14.6 | 3.35 | 13 | 1.97 | 4.59
Cn1c(=O)c(Oc2ccc(F)cc2F)cc2cnc(NC3CCOCC3)nc21 | > 25 | > 25 | > 25 | > 25 | > 25 | > 25 | 0.601 | 19.4 | > 25 | > 25 |  |  | > 25 | > 25 | > 15.5 | > 25 | > 25 | > 25 | > 25 | > 25
CCCCCCCCCCCCCCCCN(CC)CC | 1.92 | 3.56 | 1.79 | 3.36 |  |  | 1.74 | 3.94 | 1.99 | 4.51 | 2.02 | 4.76 | 2.1 | 4.45 | 2.39 | 9.03 | 1.95 | 3.86 | 1.87 | 3.59
COc1cc(C2CC(=O)Nc3c2c(C)nn3-c2nc3ccccc3[nH]2)cc(OC)c1O (configuration not stated) | 3.19 | > 35.1 | 2.82 | 7.63 | 0.0427 | 0.242 | 2.8 | 8.81 | 3.35 | 14.5 |  |  | 3.11 | > 28.6 | 1.85 | 5.13 | 1.98 | 4.42 | 3.26 | 12.4
N#CC1=C(N)Oc2c(sc3c(Br)cccc23)C1c1ccc(Cl)cc1 (configuration not stated) |  |  | 0.787 | 4.35 | 0.625 | 6.49 | 2 | 7.29 | 0.342 | 2.69 | 2.23 | 17.4 | 0.531 | 2.46 | 0.478 | 9.41 | 0.277 | 1.01 | 0.389 | 6.2
O=[N+]([O-])c1ccc2c(c1)C(c1ccccc1Cl)=Nc1c(n[nH]c1-c1cccnc1)N2 | > 25 | > 25 | > 25 | > 25 | > 25 | > 25 | > 25 | > 25 | > 25 | > 25 |  |  | > 25 | > 25 | > 10.1 | > 25 | > 25 | > 25 | 9.41 | > 25
O=C1CC(N2C(=O)/C(=C/C(Cl)=C\c3ccc([N+](=O)[O-])cc3)SC2=S)C(=O)N1c1ccc(O)cc1 (configuration not stated) | 2.55 | 6.75 | 1.2 | 2.68 | 0.544 | 15.3 | 1.62 | 3.72 | 0.394 | 4.97 | 3.25 | 11.7 | 1.36 | 2.76 |  |  | 2.01 | 4.34 | 1.83 | 4.64
